Results reported in patent US20040057926A1, “Modulation of the immune response through the manipulation of arginine levels” (LSU Medical Center, priority 2002, published 2004).

B1: CagA: recombinant H. pylori protein CagA (protein, UniProt P55980 1-1186, looked up)
Cytotoxicity-associated …: MTNETIDQTRTPDQTQSQTAFDPQQFINNLQVAFIKVDNVVASFDPDQKPIVDKNDRDNRQAFDGISQLREEYSNKAIKNPTKKNQYFSDFIDKSNDLINKDNLIDVESSTKSFQKFGDQRYQIFTSWVSHQKDPSKINTRSIRNFMENIIQPPIPDDKEKAEFLKSAKQSFAGIIIGNQIRTDQKFMGVFDESLKERQEAEKNGGPTGGDWLDIFLSFIFNKKQSSDVKEAINQEPVPHVQPDIATTTTDIQGLPPEARDLLDERGNFSKFTLGDMEMLDVEGVADIDPNYKFNQLLIHNNALSSVLMGSHNGIEPEKVSLLYAGNGGFGDKHDWNATVGYKDQQGNNVATLINVHMKNGSGLVIAGGEKGINNPSFYLYKEDQLTGSQRALSQEEIRNKVDFMEFLAQNNTKLDNLSEKEKEKFQNEIEDFQKDSKAYLDALGNDRIAFVSKKDTKHSALITEFNNGDLSYTLKDYGKKADKALDREKNVTLQGSLKHDGVMFVDYSNFKYTNASKNPNKGVGATNGVSHLEAGFNKVAVFNLPDLNNLAITSFVRRNLENKLTAKGLSLQEANKLIKDFLSSNKELAGKALNFNKAVAEAKSTGNYDEVKKAQKDLEKSLRKREHLEKEVEKKLESKSGNKNKMEAKAQANSQKDEIFALINKEANRDARAIAYTQNLKGIKRELSDKLEKISKDLKDFSKSFDEFKNGKNKDFSKAEETLKALKGSVKDLGINPEWISKVENLNAALNEFKNGKNKDFSKVTQAKSDLENSVKDVIINQKVTDKVDNLNQAVSVAKAMGDFSRVEQVLADLKNFSKEQLAQQAQKNEDFNTGKNSELYQSVKNSVNKTLVGNGLSGIEATALAKNFSDIKKELNEKFKNFNNNNNGLKNSTEPIYAKVNKKKTGQVASPEEPIYTQVAKKVNAKIDRLNQIASGLGGVGQAAGFPLKRHDKVDDLSKVGLSASPEPIYATIDDLGGPFPLKRHDKVDDLSKVGRSRNQELAQKIDNLNQAVSEAKAGFFGNLEQTIDKLKDSTKKNVMNLYVESAKKVPASLSAKLDNYAINSHTRINSNIQNGAINEKATGMLTQKNPEWLKLVNDKIVAHNVGSVSLSEYDKIGFNQKNMKDYSDSFKFSTKLNNAVKDIKSGFTHFLANAFSTGYYCLARENAEHGIKNVNTKGGFQKS

system: T-cells; assay: Lysosome and proteasome inhibition, CD3ζ expression in T-cells; assay type: cell-based, human; conditions: lactacystin 2.5 μM, bafylomycin A1 1 μM
Method: To inhibit lysosome function 2×10^6 T-cells cultured in the presence or absence of L-arginine, were treated with 1 μM bafylomycin A1 (Calbiochem, San Diego, Calif.) or 1 μM folimycin (Calbiochem) during the course of the experiments begining at time 0 (start of the cultures), 24, 48 and 72 hours after stimulation. To inhibit proteasome activity 2.5 μM lactacystin (Calbiochem) was added to the cultures at the same time points. DMSO was used as a control vehicle in all the cases. The CD3ζ expression was tested by flow cytometry 24 hours after the addition of the inhibitors.

Question: For `CO/C1=C\C(C)=C\[C@@H](C)[C@@H](O)[C@@H](C)C/C(C)=C/C=C/[C@H](OC)[C@@H]([C@@H](C)[C@@H](O)[C@H](C)[C@@]2(O)C[C@@H](O)[C@H](C)[C@@H](C(C)C)O2)OC1=O` [bafilomicyn, bafylomycin A1], which “decrease of CD3ζ upon stimulation with proteosome or lysosome inhibitor” value is on record?
Answer: The value was “failed to prevent the decrease of CD3ζ upon stimulation”.

Question: For `CC(=O)N[C@@H](CSC(=O)[C@]1([C@@H](O)C(C)C)NC(=O)[C@H](C)[C@@H]1O)C(=O)O` [lactacystin], which “decrease of CD3ζ upon stimulation with proteosome or lysosome inhibitor” value is on record?
Answer: Its value is “failed to prevent the decrease of CD3ζ upon stimulation”.

system: Jurkat cells; assay: Co-culture in transwells of stimulated PM and Jurkat cells, CD3ζ expression; assay type: cell-based; conditions: NOHA 100 μM, Nor-NOHA 50 μM, L-Arg 2 mM, L-NIL 5 μg/ml, catalase 200 U/ml, L-NMMA, L-NNA, L-NAME 1 mM
Method: PM were cultured in 6 well plates in RPMI containing 150 μM L-Arg and stimulated with murine rIL-4 (50 U/ml) and murine rIL-13 (50 ng/ml), or murine rIFN-γ (100 U/ml) for 24 hours. Then 1×10^6 normal T-cells stimulated with anti-CD3 plus anti-CD28 or 1×10^6 Jurkat cells, were cultured in the top chamber of a transwell system having 0.4 μm pores (Falcon, Franklin lakes, N.J.). CD3ζ expression was measured in Jurkat cells or T lymphocytes at different time points. PM were detached using trypsin/EDTA and the expression of protein and RNA for CAT-2B, ASE I, ASE II and iNOS was tested by western blot and northern blot respectively. Cytoplasmic extracts from PM were used to test ASE activity. Supernatants from stimulated PM were used to measure NO production using the Griess reagent method (Molecular Probes, Eugene, Oreg.). In addition, the extra-cellular concentration of L-Arg was tested in supernatants by HPLC (Dr. Gu Yao Wu laboratory, University of Texas) as described previously. O'Quinn, P. R., D. A. Knabe, and G. Wu. 2002. Arginine catabolism in lactating porcine mammary tissue. J Anim Sci. 80:467-474.
Flow cytometry analysis was performed as previously described. Taheri, F., J. B. Ochoa, Z. Faghiri, K. Culotta, H. J. Park, M. S. Lan, A. H. Zea, and A. C. Ochoa. 2001. L-Arginine regulates the expression of the T-cell receptor zeta chain (CD3zeta) in Jurkat cells. Clin Cancer Res 7:958s-965s. Briefly, 5×10^5 Jurkat cells or T lymphocytes were washed once with Dulbecco phosphate-buffered saline 1× (D-PBS) and resuspended in 200 μL of D-PBS containing 1 μg of anti-CD3ε or isotype control. Cells were incubated for 15 min at 4° C., washed with D-PBS and resuspended in 200 μl D-PBS containing 500 μg/ml of digitonin plus 1 μg of anti-CD3ζ or 1 μg of isotypic control. Cells were incubated for 8 minutes after which they were washed and resuspended in 400 μl of D-PBS. Fluorescence acquisition and analysis were done using a Coulter-EPICS XL flow cytometer (Beckman-Coulter) with a 488 nm argon laser. The data were expressed as mean channel fluorescence intensity (MFI).

Question: Which “CD3ζ in Jurkat cells co-cultured with PM stimulated with IL-4+IL-13” value (“CD3ζ in Jurkat cells co-cultured” below) does the source give for `COC(=O)[C@@H](N)CCCNC(=N)N[N+](=O)[O-]` [L-NAME, N-NO2-L-Arg-OMe] here?
Answer: The value was “did not prevent CD3ζ decrease”.

Question: With `CC(=N)NCCCC[C@H](N)C(=O)O` [L-NIL] as the molecule, how does the “CD3ζ in Jurkat cells co-cultured” value read?
Answer: The value was “did not prevent CD3ζ down-regulation”.

Question: With `CNC(=N)NCCC[C@H](N)C(=O)O` [NMMA, L-mono-methyl-L-Arg] as the molecule, how does the “CD3ζ in Jurkat cells co-cultured” value read?
Answer: The value was “partially prevented the CD3ζ down-regulation”.

Question: With Catalase as the molecule, how does the “CD3ζ in Jurkat cells co-cultured” value read?
Answer: The value was “did not prevent the decrease of CD3ζ”.

Question: Which “CD3ζ in Jurkat cells co-cultured” value does the source give for `N=C(NCCC[C@H](N)C(=O)O)N[N+](=O)[O-]` [L-NNA, N-NO2-L-Arg] here?
Answer: Its value is “did not prevent CD3ζ decrease”.

same assay, conditions: data not shown

Question: With `NC(N)=O` [urea] as the molecule, how does the “induction of CD3ζ down-regulation by excess of the substance” value read?
Answer: The value was “did not induce CD3ζ down-regulation”.

Question: With `NCCC[C@H](N)C(=O)O` [L-ornithine] as the molecule, how does the “induction of CD3ζ down-regulation by excess of the substance” value read?
Answer: The value was “did not induce CD3ζ down-regulation”.

system: not given; assay: not given; assay type: cell-based; conditions: within 24 h, trypan blue exclusion
Method: To further explore possible mechanisms leading to a decreased T-cell response induced by the H. pylori sonicate, various aspects of T-cell signal transduction were studied. […] The expression of the CD3ζ chain, the main signaling element of the T-cell antigen receptor, were then tested. […] Harris, P. R., et al. J. Infect. Dis. 178, pp. 1516-1520 (1998); Zhang, Q. B., et al. Gut 38, pp. 841-845 (1996). Therefore some of these H. pylori proteins were tested to determine whether they could reduce CD3ζ expression. The recombinant proteins CagA, VacA, urease A (UreA), urease B (UreB) were titrated up to 10 μg/ml, a concentration where they caused cell death within 24 h as determined by trypan blue exclusion. […] Harris, P. R., et al. J. Infect. Dis. 178, pp. 1516-1520 (1998); Pai, R., et al. Biochem. Biophys. Res. Commun. 262, pp. 245-250 (1999); Rudnicka, W., et al. J. Physiol Pharmacol. 49, pp. 111-119 (1998); Tanahashi, T., et al. Infect. Immun. 68, pp. 664-671 (2000).

Question: With `NC(N)=O` [urea] as the molecule, how does the “concentration where they caused cell death” value read?
Answer: The value was 10000 ng/mL.

Question: Which “concentration where they caused cell death” value does the source give for UreB: recombinant H. pylori urease B here?
Answer: The value was 10000 ng/mL.

Question: For B1, which “concentration where they caused cell death” value is on record?
Answer: The value was 10000 ng/mL.
